{
  "source": "ChEMBL document CHEMBL3758156",
  "about": "“The importance of triazole scaffold in the development of anticonvulsant agents” (Eur J Med Chem, 2016)",
  "key": {"Mus musculus [1]": {"tested_on": "Mus musculus", "assay": "Anticonvulsant activity in albino Swiss mouse assessed as protection against PTZ-induced seizures at 100 mg/kg, ip administered 2 hrs prior to PTZ injection measured after 60 mins", "format": "functional"}, "[2]": {"assay": "Protective index, ratio of TD50 for neurotoxicity in ip dosed C57BL/6 mouse to ED50 for anticonvulsant activity in ip dosed C57BL/6 mouse", "format": "toxicity, organism-based, C57B/6", "conditions": "in vivo"}, "[3]": {"assay": "Neurotoxicity in ip dosed C57BL/6 mouse after 30 mins by rotarod test", "format": "toxicity, organism-based, C57B/6", "conditions": "in vivo"}, "Mus musculus [4]": {"tested_on": "Mus musculus", "assay": "Anticonvulsant activity in ip dosed C57BL/6 mouse assessed as protection against maximal electroshock-induced seizures measured at 30 mins interval over 4 hrs by MES test", "format": "functional", "conditions": "C57B/6, ip"}, "Mus musculus [5]": {"tested_on": "Mus musculus", "assay": "Anticonvulsant activity in ip dosed Kunming mouse assessed as protection against maximal electroshock-induced seizures […]", "format": "functional"}, "[6]": {"assay": "Protective index, ratio of TD50 for neurotoxicity in ip dosed Kunming mouse to ED50 for anticonvulsant activity in ip dosed Kunming mouse", "format": "toxicity, organism-based", "conditions": "in vivo, read-out: PI"}, "Mus musculus [7]": {"tested_on": "Mus musculus", "assay": "Anticonvulsant activity in BALB/c mouse assessed as protection against maximal electroshock-induced seizures at 30 mg/kg, po after 1 hr by MES test", "format": "functional"}, "Mus musculus [8]": {"tested_on": "Mus musculus", "assay": "Anticonvulsant activity in NMRI mouse assessed as protection against maximal electroshock-induced seizures at 100 mg/kg, ip by MES test", "format": "functional"}, "Mus musculus [9]": {"tested_on": "Mus musculus", "assay": "Anticonvulsant activity in NMRI mouse assessed as protection against PTZ-induced seizures at 100 mg/kg, ip administered 30 mins prior to PTZ injection measured for 30 mins", "format": "functional"}, "Mus musculus [10]": {"tested_on": "Mus musculus", "assay": "Anticonvulsant activity in lithium-pilocarpine NMRI mouse model assessed as inhibition of pilocarpine-induced seizures at 10 mg/kg, ip administered 30 mins prior to pilocarpine injection measured for 60 mins", "format": "functional"}, "Mus musculus [11]": {"tested_on": "Mus musculus", "assay": "Anticonvulsant activity in ip dosed Swiss mouse assessed as protection against maximal electroshock-induced seizures administered 30 mins prior to electrical stimulation by MES test", "format": "functional"}, "[12]": {"assay": "Protective index, ratio of TD50 for neurotoxicity in ip dosed Swiss mouse by rotarod test to ED50 for anticonvulsant activity in ip dosed Swiss mouse by MES test", "format": "toxicity, organism-based", "conditions": "in vivo, read-out: Ratio TD50/ED50"}, "Mus musculus [13]": {"tested_on": "Mus musculus", "assay": "Anticonvulsant activity in ip dosed Kunming mouse assessed as protection against maximal electroshock-induced seizures after 30 mins by MES test", "format": "functional", "conditions": "0.5 h"}, "Mus musculus [14]": {"tested_on": "Mus musculus", "assay": "Anticonvulsant activity in ip dosed NMRI mouse assessed as protection against PTZ-induced seizures administered 30 mins prior to PTZ injection measured after 30 mins", "format": "functional"}, "Mus musculus [15]": {"tested_on": "Mus musculus", "assay": "Anticonvulsant activity in ip dosed Swiss mouse assessed as protection against strychnine-induced tonic extensor after 30 mins", "format": "functional", "conditions": "0.5 h"}, "Mus musculus [16]": {"tested_on": "Mus musculus", "assay": "Anticonvulsant activity in ip dosed Swiss mouse assessed as protection against PTZ-induced seizures administered 30 mins prior to PTZ challenge", "format": "functional"}, "Mus musculus [17]": {"tested_on": "Mus musculus", "assay": "Anticonvulsant activity in mouse assessed as protection against maximal electroshock-induced seizures at 50 and 100 mg/kg by MES test", "format": "functional"}, "[18]": {"assay": "Protective index, ratio of TD50 for neurotoxicity in ip dosed Swiss mouse to ED50 for anticonvulsant activity in ip dosed Swiss mouse", "format": "toxicity, organism-based", "conditions": "in vivo, read-out: Ratio TD50/ED50"}, "[19]": {"assay": "Neurotoxicity in ip dosed Kunming mouse after 15 mins by rotarod test", "format": "toxicity, organism-based", "conditions": "in vivo"}, "Mus musculus [20]": {"tested_on": "Mus musculus", "assay": "Anticonvulsant activity in po dosed CD1 mouse assessed as protection against strychnine-induced seizures administered 0.5 hr prior to strychnine challenge", "format": "functional"}, "Mus musculus [21]": {"tested_on": "Mus musculus", "assay": "Anticonvulsant activity in ip dosed C57BL/6 mouse assessed as protection against maximal electroshock-induced seizures measured at 5 secs intervals over 4 hrs by MES test", "format": "functional", "conditions": "C57B/6, ip"}},
  "data": [
    {"smiles": "CC1=NNC(=O)/C1=N\\Nc1ccc(-c2n[nH]c(=S)n2-c2ccccc2)cc1", "values": [
      {"measurement": "Activity", "setting": "Mus musculus [1]", "result": 30, "unit": "%"}
    ]},
    {"smiles": "CC1=NNC(=O)/C1=N\\Nc1ccc(-c2n[nH]c(=O)n2-c2ccccc2)cc1", "values": [
      {"measurement": "Activity", "setting": "Mus musculus [1]", "result": 30, "unit": "%"}
    ]},
    {"smiles": "CCCCCCCOc1ccc2c(c1)CCc1nn(C(=O)CC)c(=O)n1-2", "values": [
      {"measurement": "selectivity ratio", "setting": "[2]; read-out: Ratio TD50/ED50", "result": 39},
      {"measurement": "TD50 at 0.5 h", "setting": "[3]", "result": 318, "unit": "mg/kg"},
      {"measurement": "ED50", "setting": "Mus musculus [4]", "result": 8.2, "unit": "mg/kg"}
    ]},
    {"smiles": "CCCCCCCOc1cc(-c2ccccc2)nc2ncnn12", "values": [
      {"measurement": "ED50", "setting": "Mus musculus [5]", "result": 84.9, "unit": "mg/kg"}
    ]},
    {"smiles": "Clc1ccc(-c2nn3cnnc3s2)cc1", "values": [
      {"measurement": "ED50", "setting": "Mus musculus [5]", "result": 23.7, "unit": "mg/kg"},
      {"measurement": "selectivity ratio", "setting": "[6]", "result": 10.8}
    ]},
    {"smiles": "Cn1c(SCc2ccccc2)nnc1-c1ccc(N)cc1", "values": [
      {"measurement": "Activity", "setting": "Mus musculus [7]", "result": 50, "unit": "%"}
    ]},
    {"smiles": "Clc1ccc(-c2nc(Cn3cncn3)cs2)cc1", "values": [
      {"measurement": "Activity", "setting": "Mus musculus [8]", "result": 100, "unit": "%"},
      {"measurement": "Activity", "setting": "Mus musculus [9]", "result": 100, "unit": "%"}
    ]},
    {"smiles": "O=C1c2ccccc2OCC1n1cncn1", "note": "(stereo unspecified)", "values": [
      {"measurement": "inhibition in vivo at 10 mg/kg", "setting": "Mus musculus [10]", "result": 49, "unit": "%"}
    ]},
    {"smiles": "CCCCCCCOc1nn2cnnc2c2ccccc12", "values": [
      {"measurement": "ED50", "setting": "Mus musculus [11]", "result": 11, "unit": "mg/kg"},
      {"measurement": "selectivity ratio", "setting": "[12]", "result": 8}
    ]},
    {"smiles": "CCCCCCCOc1nncn1-c1ccc(OCCCCCC)cc1", "values": [
      {"measurement": "ED50", "setting": "Mus musculus [13]", "result": 37.3, "unit": "mg/kg"},
      {"measurement": "selectivity ratio", "setting": "[6]", "result": 11.3}
    ]},
    {"smiles": "Nc1nnc(-c2ccc(Cl)cc2Oc2ccccc2F)[nH]1", "values": [
      {"measurement": "ED50", "setting": "Mus musculus [14]", "result": 1.4, "unit": "mg/kg"}
    ]},
    {"smiles": "CCCCCCOc1ccc2c(c1)c(-c1ccccc1)cc1nncn12", "values": [
      {"measurement": "selectivity ratio", "setting": "[2]; read-out: PI", "result": 35.1},
      {"measurement": "ED50", "setting": "Mus musculus [4]", "result": 6.5, "unit": "mg/kg"}
    ]},
    {"smiles": "Clc1ccc(C2=Nn3cnnc3SC2)cc1", "values": [
      {"measurement": "ED50", "setting": "Mus musculus [5]", "result": 40.9, "unit": "mg/kg"},
      {"measurement": "selectivity ratio", "setting": "[6]", "result": 6.5}
    ]},
    {"smiles": "Cc1nn2c(C(N)=O)nnc2cc1Cc1c(Cl)cccc1Cl", "values": [
      {"measurement": "ED50", "setting": "Mus musculus [15]", "result": 62.9, "unit": "mg/kg"},
      {"measurement": "ED50", "setting": "Mus musculus [16]", "result": 91.1, "unit": "mg/kg"},
      {"measurement": "ED50", "setting": "Mus musculus [11]", "result": 12.5, "unit": "mg/kg"}
    ]},
    {"smiles": "CCn1c(S)nnc1-c1sc(-c2ccccc2)nc1C", "values": [
      {"measurement": "Activity", "setting": "Mus musculus [17]", "result": 80, "unit": "%"}
    ]},
    {"smiles": "Fc1ccc(-n2c(-c3cccc(Cl)c3)n[nH]c2=S)cc1", "values": [
      {"measurement": "selectivity ratio", "setting": "[18]", "result": 3.9}
    ]},
    {"smiles": "Clc1ccc(Oc2nn3cnnc3c3ccccc23)cc1", "values": [
      {"measurement": "ED50", "setting": "Mus musculus [11]", "result": 7.1, "unit": "mg/kg"},
      {"measurement": "selectivity ratio", "setting": "[12]", "result": 5.2}
    ]},
    {"smiles": "Fc1ccccc1COc1ccc2c(c1)SCc1nncn1-2", "values": [
      {"measurement": "ED50", "setting": "Mus musculus [13]", "result": 17, "unit": "mg/kg"},
      {"measurement": "TD50 at 0.25 h", "setting": "[19]", "result": 244, "unit": "mg/kg"}
    ]},
    {"smiles": "Cn1c(-c2ccccc2)nnc1S(C)(=O)=O", "values": [
      {"measurement": "ED50", "setting": "Mus musculus [16]", "result": 55, "unit": "mg/kg"},
      {"measurement": "ED50", "setting": "Mus musculus [20]", "result": 7.3, "unit": "mg/kg"}
    ]},
    {"smiles": "Nc1nnc(-c2ccc(Cl)cc2Oc2ccccc2Cl)[nH]1", "values": [
      {"measurement": "ED50", "setting": "Mus musculus [14]", "result": 12, "unit": "mg/kg"}
    ]},
    {"smiles": "Fc1cccc(C2Cc3nncn3-c3ccccc32)c1", "note": "(stereo unspecified)", "values": [
      {"measurement": "selectivity ratio", "setting": "[2]; read-out: PI", "result": 3.33},
      {"measurement": "ED50", "setting": "Mus musculus [21]", "result": 22, "unit": "mg/kg"},
      {"measurement": "ED50", "setting": "Mus musculus [4]", "result": 27.4, "unit": "mg/kg"}
    ]}
  ]
}
